Experimental data from patent EP2736485B1, “AQUEOUS SOLUTIONS OF […], IN […] SOLUTIONS” (Universität Regensburg, priority 2011, dated 2013).

Test: Solubilisation of active ingredient in aqueous surfactant solution (stirring overnight at room temperature)
Format: physicochemical
Settings: Aqua bidest. ad 1,00 ml
Protocol: Das einfache grundlegende System besteht aus einem erfindungsgemäß geeigneten Tensid, einem lipophilen Wirkstoff und Wasser. Durch Lösen der Bestandteile mittels Rühren entsteht ein vorzugsweise klares, kolloidales System, in welchem die lipophile Substanz in Mizellen verkapselt gelöst ist.
Wirkstoff und Tensid wurden eingewogen und um 1ml Aqua bidest. ergänzt. Dieser Ansatz wurde über Nacht durch Rühren bei Raumtemperatur (21°C) gelöst. […] Die Messungen wurden mittels Photonenkorellationsspektrometrie durchgeführt.
Die Herstellung erfolgte analog wie bereits unter Beispiel 1 beschrieben.

Question: Which results are given for `CCCC1O[C@@H]2C[C@H]3[C@@H]4CCC5=CC(=O)C=C[C@]5(C)[C@H]4[C@@H](O)C[C@]3(C)[C@]2(C(=O)CO)O1` (stereo partly shown) [Budesonid]?
Answer: Budesonid in Lösung (Solutol® HS15 10,00 mg): 0,09 mg; Budesonid in Lösung (Solutol® HS15 50,00 mg): 0,41 mg; Budesonid in Lösung (Solutol® HS15 100,00 mg): 0,77 mg; Budesonid in Lösung (Solutol® HS15 200,00 mg): 1,32 mg
